Data taken from PMC7801115, “Preclinical in vitro screening of newly synthesised amidino substituted benzimidazoles and benzothiazoles” (Journal of Enzyme Inhibition and Medicinal Chemistry, 2021).

What was measured:
HCC827 = assay: BrdU proliferation assay, 2D cell culture; assay type: cell-based; details: Homo sapiens, HCC827, 2D cell culture, ±SD, N = 2
Experimental: (§1) Cells were grown in 96 well cell star polystyrene plates. 10,000 cells/well were seeded in wells 4 h prior the treatment with different compounds concentrations and incubated for 72 h. A cell viability assay was performed according to the manufacturer’s instruction, using CellTiter 96 aqueous solution, MTS kit (Promega, Madison, WI, USA). After 0.5–2 h of cell incubation with MTS in 2 D cell culture, the plates were read using PE EnVision absorbance at 490 nm. […] Since we prefer homogeneous assays (mix and read procedures) and therefore MTS is more practical (one step less than MTT). MTS is more sensitive and accurate in comparison with MTT assay.
(§2) Proliferation assay was performed using Cell Proliferation ELISA, BrdU (Sigma, St. Louis, MO, USA). Briefly, 48 h hours after compound addition, 10 µM of BrdU was added to each well and incubated for following 24 h. After incubation, single cell suspension was made for 3 D cell culture in the new 96 well plate. Plates were centrifuged and supernatants were removed from each plate (for 2 D and 3 D cell culture) followed by 60 min incubation at 60° C. The rest of the proliferation assay was performed according to the manufacturer instructions.
(§3) Calculation of IC50 data, curves and QC analysis is made by using Excel tools and GraphPadPrism software (La Jolla, CA), v. […] QC criteria parameters (Z', S:B, R2, HillSlope) were checked for every IC50 curve.

NCI-H358 = assay: BrdU proliferation assay, 2D cell culture; assay type: cell-based; details: Homo sapiens, NCI-H358, 2D cell culture, ±SD, N = 2
Experimental: as §1, §2, §3

[1] = Metabolic stability in liver microsomes; assay type: in vitro ADME; details: 60 min
Experimental: Tested compounds (final concentration of 1 µM, 0.1% DMSO), as well as testosterone and propranolol as positive controls and caffeine as negative control were incubated in phosphate buffer (50 mM, pH 7.4) for 60 min at 37 °C with liver microsomes (human and mouse) in the absence and presence of the NADPH cofactor. The NADPH generating system was prepared in phosphate buffer and consisted of nicotinamide adenine dinucleotide phosphate (NADP, 0.38 mM), glucose-6-phosphate (1.49 mM), glucose-6-phosphate dehydrogenase (1.5 U) and magnesium chloride (0.1 mM). Aliquots were taken at different time points (0, 10, 20, 30, 45 and 60 min) and reaction was terminated by addition of a MeCN/MeOH (2:1) mixture, containing diclofenac as internal standard. Samples were then centrifuged (at 4500 rpm, at 4 °C, for 30 min) and resulting supernatants were subjected to LC-MS/MS analysis. The in vitro half life (t½) was determined from the slope of the linear regression of ln % parent compound remaining versus incubation time. In vitro intrinsic clearance, expressed as µl/min/mg liver, was determined from in vitro half life (t½) and normalised for the protein concentration in the incubation mixture. Predicted in vivo hepatic clearance was determined from in vitro intrinsic clearance assuming 52.5 mg of protein/g of liver and using constant values for liver weight/body weight [g/kg] (25.7 for human, 87.5 for mouse) and liver blood flow (LBF) [ml/min/kg] (21 for human and 131 for mouse).
(§4) All ADME samples were analysed on a Sciex API 4000 or Sciex API4500 Triple Quadrupole Mass Spectrometer (Sciex, Framingham, MA, USA) coupled to a UHPLC System (Shimadzu Nexera X2; Shimadzu, Kyoto, Japan). Samples were injected onto an UPLC column (HALO2 C18, 2.1 × 20 mm, 2 µm or Phenomenex Luna Omega Polar C18, 30 × 2.1 mm, 1.6 µm) and eluted with a gradient at temperature of 50 °C. The mobile phase was composed of acetonitrile (with 0.1% formic acid) and 0.1% formic acid in deionised water. A total run time was 1 or 1.5 min, with the flow rate of 0.7 ml/min (under gradient conditions). A positive ion mode with turbo spray, an ion source temperature of 500 °C and a dwell time of 150 ms were utilised for mass spectrometric detection. Multiple reaction monitoring (MRM) was used at the specific transitions for each compound/control tested: compound 5c: 361.9 → 304.9; compound 5d: 344.8 → 287.9; compound 5e: 349.8 → 292.9; compound 5 g: 350.8 → 293.9; compound 5 h: 344.0 → 286.9; compound 6a: 276.9 → 220.0; compound 5 b: 319.0 → 262.0; compound 6 b: 302.1 → 245.1; compound 6c: 344.9 → 288.0; compound 6d: 333.0 → 276.0; compound 6e: 316.1 → 259.0; compound 6f: 327.1 → 270.0; compound 6 g: 377.1 → 320.1; testosterone: 289.3→ 97.1; propranolol: 260.1 → 182.8; caffeine: 195.2 → 138.1; acebutolol: 337.2 → 116.2, nicardipine: 480.2 → 315.0; verapamil: 455.4 → 165.1; amprenavir: 506.2 → 245.4; diclofenac: 296.1 → 213.7 or 296.2 → 215.3; eucatropine: 292.2 → 109.1; benfluorex: 352.1 → 230.3, and warfarin: 309.2 → 163.2

[2] = test system: P-glycoprotein (human MDR1); assay: MDCKII-MDR1 permeability and P-glycoprotein substrate assay; assay type: in vitro ADME, canine cells over-expressing human MDR1; details: dog; for efflux ratio at 60 min, 10 µM: MDCK-MDR1, pH 7.4, without P-gp inhibitor; for Papp A→B at 60 min, 10 µM / Papp B→A at 60 min, 10 µM: MDCK-MDR1, pH 7.4, without P-gp inhibitor; for Papp A→B at 60 min, 10 µM: read-out: MDCKII-MDR1 Papp(A2B); for Papp B→A at 60 min, 10 µM: read-out: MDCKII-MDR1 Papp(B2A)
Experimental: Permeability and P-glycoprotein substrate assessment was done on MDCKII-hMDR1, Madin-Darby canine epithelial cells over-expressing human MDR1 gene, coding for P-glycoprotein.
Cells were prepared for transport studies by seeding on 96-well cell culture inserts (Millipore, MA, USA) in a concentration of 0.25 × 10^6 cells per ml. The cells were fed with fresh medium 24 h post seeding and cultured to confluence for 3 days before use. On the day of experiment, the cell monolayers were washed and equilibrated with transport medium (DPBS, pH 7.4 containing 1% DMSO) with or without P-gp specific inhibitor, elacridar (2 µM) for 45 min (37 °C, 5% CO2, 95% humidity). Test compound solution consisted of test substance (10 μM) in D-PBS medium containing lucifer yellow (100 μM) and 1% DMSO. Transport assays were conducted in apical to basolateral (A2B) and basolateral to apical (B2A) directions, respectively. Monolayers were incubated with the compound solution for 60 min at 37 °C under gentle agitation. Apical and basolateral compartments were sampled at the end of the transport experiment, while donor solutions were also sampled at the beginning of the experiment in order to determine initial concentration. Test substance concentrations in both compartments were determined by LC-MS/MS. There were several controls used in the assay: 1) amprenavir (0.5 μM) served as a low permeable control, being also a P-gp substrate; 2) diclofenac (10 μM) was used as a high permeable control; 3) Lucifer yellow, a fluorescent marker for the paracellular membrane transport, was used as a control of cell monolayer integrity.
as §4

| SMILES | IC50 (HCC827) | IC50 (NCI-H358) | Microsomes (1 µM) Predicted in vivo hep CL, Human [1] | Microsomes (1 µM) Predicted in vivo hep CL, Mouse [1] | efflux ratio at 60 min, 10 µM [2] | Papp A→B at 60 min, 10 µM [2] | Papp B→A at 60 min, 10 µM [2] |
| --- | --- | --- | --- | --- | --- | --- | --- |
| c1ccc2sc(-c3nc4cc(C5=NCCCN5)ccc4[nH]3)cc2c1 [Compound 6d, 2-(Benzo[b]thiophen-2-yl)-5(6)–(3,4,5,6-tetrahydropyrimidin-1-ium-2-yl)benzimidazole chloride] | > 50 µM | > 50 µM | <30 %LBF | 71 %LBF | 7.75 | 0.11 ×10⁻⁶ cm/s | 0.86 ×10⁻⁶ cm/s |
| Cl.c1ccc2sc(-c3nc4ccc(C5=NCCCN5)cc4s3)nc2c1 [Compound 5g, 2-(Benzothiazole-2-yl)-6–(3,4,5,6-tetrahydropyrimidin-1-ium-2-yl)benzothiazole chloride] | 18 ± 0.76 µM | 13 ± 0.45 µM | <30 %LBF | <30 %LBF | > 17 | < 0.1 ×10⁻⁶ cm/s | 16.5 ×10⁻⁶ cm/s |
| FC(F)(F)c1ccc(-c2nc3cc(C4=NCCCN4)ccc3[nH]2)cc1 [Compound 6c, 2–(4-Trifluoromethylphenyl)-5(6)–(3,4,5,6-tetrahydropyrimidin-1-ium-2-yl)benzimidazole chloride] | > 50 µM | > 50 µM | <30 %LBF | <30 %LBF | 2.82 | 0.69 ×10⁻⁶ cm/s | 1.93 ×10⁻⁶ cm/s |
| c1ccc2c(c1)cc(-c1nc3cc(C4=NCCCN4)ccc3[nH]1)c1ccccc12 [Compound 6g, 2-(Phenanthrene-9-yl)-5(6)–(3,4,5,6-tetrahydropyrimidin-1-ium-2-yl)benzimidazole chloride] | > 50 µM | > 50 µM | <30 %LBF | – | 6.6 | 0.02 ×10⁻⁶ cm/s | 0.2 ×10⁻⁶ cm/s |
| Cl.c1ccc2sc(-c3nc4ccc(C5=NCCCN5)cc4s3)cc2c1 [Compound 5e, 2-(Benzo[b]thiophen-2-yl)-6–(3,4,5,6-tetrahydropyrimidin-1-ium-2-yl)benzothiazole chloride] | 10 ± 1.21 µM | 9 ± 0.65 µM | <30 %LBF | – | > 78 | < 0.1 ×10⁻⁶ cm/s | 7.6 ×10⁻⁶ cm/s |
| Cl.c1ccc2cc(-c3nc4ccc(C5=NCCCN5)cc4s3)ccc2c1 [Compound 5h, 2-(Naphthalene-2-yl)-6–(3,4,5,6-tetrahydropyrimidin-1-ium-2-yl)benzothiazole chloride] | 9 ± 0.83 µM | 7 ± 0.07 µM | <30 %LBF | <30 %LBF | > 77 | < 0.1 ×10⁻⁶ cm/s | 7.7 ×10⁻⁶ cm/s |
| Cl.c1ccc2nc(-c3nc4ccc(C5=NCCCN5)cc4s3)ccc2c1 [Compound 5d, 2-(Quinoline-2-yl)-6–(3,4,5,6-tetrahydropyrimidin-1-ium-2-yl)benzothiazole chloride] | 11 ± 0.17 µM | 9 ± 0.31 µM | <30 %LBF | <30 %LBF | > 158 | < 0.1 ×10⁻⁶ cm/s | 15.8 ×10⁻⁶ cm/s |
| Cl.N#Cc1ccc(-c2nc3ccc(C4=NCCCN4)cc3s2)cc1 [Compound 5b, 2–(4-Cyanophenyl)-6–(3,4,5,6-tetrahydropyrimidin-1-ium-2-yl)benzothiazole chloride] | > 50 µM | > 50 µM | <30 %LBF | <30 %LBF | 35.4 | 0.59 ×10⁻⁶ cm/s | 20.5 ×10⁻⁶ cm/s |
| c1ccc2c(-c3nc4ccc(C5=NCCCN5)cc4[nH]3)c[nH]c2c1 [Compound 6e, 2-(1H-Indol-3-yl)-5(6)–(3,4,5,6-tetrahydropyrimidin-1-ium-2-yl)benzimidazole chloride] | > 50 µM | > 50 µM | <30 %LBF | 78 %LBF | 3.89 | 0.57 ×10⁻⁶ cm/s | 2.17 ×10⁻⁶ cm/s |
| c1ccc2cc(-c3nc4cc(C5=NCCCN5)ccc4[nH]3)ccc2c1 [Compound 6f, 2-(Naphthalene-2-yl)-5(6)–(3,4,5,6-tetrahydropyrimidin-1-ium-2-yl)benzimidazole chloride] | > 50 µM | > 50 µM | <30 %LBF | 77 %LBF | 3.23 | 0.78 ×10⁻⁶ cm/s | 2.49 ×10⁻⁶ cm/s |
| Cl.FC(F)(F)c1ccc(-c2nc3ccc(C4=NCCCN4)cc3s2)cc1 [Compound 5c, 2–(4-Trifluoromethylphenyl)-6–(3,4,5,6-tetrahydropyrimidin-1-ium-2-yl)benzothiazole chloride] | 15 ± 2.18 µM | 16 ± 4.14 µM | <30 %LBF | <30 %LBF | > 200 | < 0.1 ×10⁻⁶ cm/s | 21.5 ×10⁻⁶ cm/s |
